# Laboratory results taken from US20070037263A1, “Novel acetoacetyl-coa reductase and process for producing optically active alcohol” (priority 2003, published 2007).
# System: RAX (acetoacetyl-CoA reductase)
# Assay: Ethyl 4-chloroacetoacetate reducing activity of RAX in the presence of inhibitors
# Assay type: biochemical
# Conditions: for enzyme activity inhibited (in words): summary of Table 1
# [1] = inhibitor 1.0 mM, 10 mM ethyl 4-chloroacetoacetate, 0.25 mM NADPH, pH 6.5, 30° C., 3 minutes, activity without inhibitor = 100%
Compound,enzyme activity inhibited (in words),Relative activity [1] [%],further results
"O=[N+]([O-])[O-].[Ag+] [AgNO3, silver nitrate]",inhibited,,"Relative activity (inhibitor 0.1 mM, 10 mM ethyl 4-chloroacetoacetate, 0.25 mM NADPH, pH 6.5, 30° C., 3 minutes, activity without inhibitor = 100%): 0%"
[Cl-].[Cl-].[Co+2] [CoCl2],,,Relative activity (pH 6.5): 108%
"O=S(=O)([O-])[O-].[Cu+2] [CuSO4, copper sulfate]",inhibited,0,
O=C(O)CN(CCN(CC(=O)O)CC(=O)O)CC(=O)O [EDTA],,,Relative activity (pH 6.5): 83%
"[Cl][Hg][Cl] [HgCl2, mercury chloride]",inhibited,,"Relative activity (inhibitor 0.01 mM, 10 mM ethyl 4-chloroacetoacetate, 0.25 mM NADPH, pH 6.5, 30° C., 3 minutes, activity without inhibitor = 100%): 0%"
O=C(O)CI [Iodoacetic acid],,,Relative activity (pH 6.5): 98%
O=S(=O)([O-])[O-].[Mg+2] [MgSO4],,100,
[Cl][Mn][Cl] [MnCl2],,97,
CCN1C(=O)C=CC1=O [N-Ethylmaleimide],,103,
O=S(=O)(F)Cc1ccccc1 [Phenylmethylsulfonyl fluoride],,108,
O=S(=O)([O-])[O-].[Zn+2] [ZnSO4],,81,
O=C(O)c1cc[c]([Hg][Cl])cc1 [p-Chloromercuribenzoic acid],inhibited,0,
